Assay results: US11098061B2 (Celgene CAR LLC, priority 2013, dated 2021)

Assays:
[1] = molecular target: p38a activated, mitogen-activated protein kinase-activated protein kinase 2 (MAPKAP-K2 or MK-2) enzyme (Homo sapiens (Human), UniProt P49137); assay: MK2 Omnia continuous-read kinase assay for compound potency; format: biochemical; conditions: [MK-2]=0.4 nM, [ATP]=1.0 mM, [ST3-Sox]=10 μM
Procedure, shortened: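 Continuous Omnia fluorescence read (λex360/λem485) every 71 s after starting with 0.4 nM MK-2, with 1.0 mM ATP (appKM 8-10 μM) and 10 μM ST3-Sox substrate.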

MK2 [2] = molecular target: T1, MK2 (Homo sapiens (Human), UniProt P49137); assay: MK2 cellular assay (Hsp27 phosphorylation in Thp-1 cells); format: cell-based; conditions: differentiated Thp-1 cells, compound 1 hour, 50 ng/ml LPS 15 minutes, phosphorylation of Hsp27; read-out: MK2EC50
Experimental: Compounds were assayed in Thp-1 human acute monocytic leukemia cells to measure inhibition of MK2 activity. Thp-1 were grown in suspension in T225 flasks. Two days prior to assay, Thp-1 cells were spun down, counted and plated at 1×10^6 cells per well of a 12 well plate in complete media containing 10 ng/ml PMA (phorbol myristate acetate) to differentiate the cells. On day of assay, cells were washed with complete media, and compound was added to differentiated Thp-1 cells for 1 hour. Cells were washed again, and complete media containing 50 ng/ml LPS (lipopolysaccharide) was added. After 15 minutes, cells were washed once with PBS and lysed on ice with BioRad Bioplex lysis buffer. 20 μg total protein from lysates were loaded on gel and blots were probed for phosphorylation of the MK2 substrate Hsp27. Dose response inhibition of MK2 signaling in differentiated Thp-1 cells was used to determine the EC50 for compounds reported in Table A in the column entitled “MK2 EC50.”

MK2 [3] = molecular target: T1, MK2; assay: MK2 modification assessment by whole protein mass spectrometry; format: binding; conditions: intact MK2, 60 min, 10-fold excess of compound to protein
Procedure, shortened: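 MK2 treated with compound is analysed intact by MALDI-TOF after C4 cleanup in sinapinic acid matrix. Percent modification is the centroid mass shift against control MK2 divided by compound mass.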

T1 sequence (P49137 whole entry): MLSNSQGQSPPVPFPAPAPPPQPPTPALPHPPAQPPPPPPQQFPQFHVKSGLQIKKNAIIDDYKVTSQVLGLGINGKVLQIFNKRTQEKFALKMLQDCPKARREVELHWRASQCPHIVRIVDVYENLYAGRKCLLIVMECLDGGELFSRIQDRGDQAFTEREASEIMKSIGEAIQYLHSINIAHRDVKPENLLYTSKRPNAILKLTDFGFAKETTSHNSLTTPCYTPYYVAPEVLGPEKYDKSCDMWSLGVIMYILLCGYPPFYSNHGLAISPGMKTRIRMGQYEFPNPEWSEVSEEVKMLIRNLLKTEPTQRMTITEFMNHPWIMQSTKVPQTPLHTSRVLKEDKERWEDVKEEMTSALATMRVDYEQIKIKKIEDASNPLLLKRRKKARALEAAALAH
Sequence of p38a activated, mitogen-activated protein kinase-activated protein kinase 2 (MAPKAP-K2 or MK-2) enzyme (P49137 whole entry): as above

| Compound | IC50 [1] [µM] | EC50 (MK2 [2]) [µM] | MK2 Mass Mod (MK2 [3]) |
| --- | --- | --- | --- |
| C=CC(=O)Nc1cc(-c2cc3c(cn2)CCc2c-3[nH]c3c2C(=O)NCC3)ccc1F [II-3, N-(2-fluoro-5-(7-oxo-6,7,8,9,10,11-hexahydro-5H-pyrido[3′,4′:4,5]pyrrolo[2,3-f]isoquinolin-2-yl)phenyl)acrylamide] | < 0.1 | < 0.1 | F (mass modification of 31-69%) |
| C=CC(=O)Nc1cc(-c2cc3c(ccc4c5c([nH]c43)CCC5=O)cn2)ccc1N1CCN(C)CC1 [II-e-4, N-(2-(4-methylpiperazin-1-yl)-5-(7-oxo-7,8,9,10-tetrahydrocyclopenta[4,5]pyrrolo[2,3-f]isoquinolin-2-yl)phenyl)acrylamide] | < 0.1 | < 0.1 | E (mass modification of ≥70%) |
| C=CC(=O)Nc1cc(NC(=O)c2ccc3sc4c(c3c2)NC[C@@H](C)NC4=O)ccc1N1CCNCC1 [III-5, (R)—N-(3-acrylamido-4-(piperazin-1-yl)phenyl)-3-methyl-5-oxo-2,3,4,5-tetrahydro-1H-benzo[4,5]thieno[3,2-e][1,4]diazepine-9-carboxamide] | < 0.1 | > 1 | E (mass modification of ≥70%) |
| C=CC(=O)Nc1cc(C(=O)Nc2cc(-c3cc4c([nH]3)C3(CCCNC3)CNC4=O)ccn2)ccc1OC(F)(F)F (racemic) [Compound I-23, 3-acrylamido-N-(4-(4′-oxo-1′,4′,5′,6′-tetrahydrospiro[piperidine-3,7′-pyrrolo[3,2-c]pyridin]-2′-yl)pyridin-2-yl)-4-(trifluoromethoxy)benzamide] | < 0.1 | 0.501 to 0.999 | E (mass modification of ≥70%) |
| C=CC(=O)Nc1cc(-c2cc3c(ccc4c5c(n(C)c43)CCC5=O)cn2)cnc1OC [II-e-21, N-(2-methoxy-5-(10-methyl-7-oxo-7,8,9,10-tetrahydrocyclopenta[4,5]pyrrolo[2,3-f]isoquinolin-2-yl)pyridin-3-yl)acrylamide] | 0.501 to 0.999 | > 1 | E (mass modification of ≥70%) |
| C=CC(=O)Nc1cc(-c2ccc3c(ccc4sc5c(c43)NC[C@@H](C)NC5=O)n2)ccc1C1CCN(C)CC1 [III-58, (R)—N-(5-(10-methyl-8-oxo-9,10,11,12-tetrahydro-8H-[1,4]diazepino[5′,6′:4,5]thieno[3,2-f]quinolin-3-yl)-2-(1-methylpiperidin-4-yl)phenyl)acrylamide] | < 0.1 | 0.101 to 0.5 | E (mass modification of ≥70%) |
| C=CC(=O)Nc1cc(-c2cc3c(cn2)CCc2c-3[nH]c3c2C(=O)NC2(CC2)C3)cnc1OCCOC [II-8, N-(2-(2-methoxyethoxy)-5-(7′-oxo-5′,6′,7′,8′8′,1′,11′-hexahydrospiro[cyclopropane-1,9′-pyrido[3′,4′:4,5]pyrrolo[2,3-f]isoquinolin]-2′-yl)pyridin-3-yl)acrylamide] | < 0.1 | < 0.1 | E (mass modification of ≥70%) |
| C=CC(=O)Nc1cc(NC(=O)c2ccc3cc4n(c3c2)C2(CCC2)CNC4=O)ccc1N1CCN(C)CC1 [Compound V-15, N-(3-acrylamido-4-(4-methylpiperazin-1-yl)phenyl)-1′-oxo-2′,3′-dihydro-1′H-spiro[cyclobutane-1,4′-pyrazino[1,2-a]indole]-7′-carboxamide] | < 0.1 | 0.101 to 0.5 | E (mass modification of ≥70%) |
| C=CC(=O)N1CCOc2ccc(NC(=O)c3ccc4cc5n(c4c3)CCNC5=O)cc21 [Compound V-6, N-(4-acryloyl-3,4-dihydro-2H-benzo[b][1,4]oxazin-6-yl)-1-oxo-1,2,3,4-tetrahydropyrazino[1,2-a]indole-7-carboxamide] | < 0.1 | > 1 | E (mass modification of ≥70%) |
| C=CC(=O)Nc1ccccc1C(=O)Nc1cc(-c2cc3c([nH]2)C2(CCCNC2)CNC3=O)ccn1 (racemic) [Compound I-4, 2-acrylamido-N-(4-(4′-oxo-1′,4′,5′,6′-tetrahydrospiro[piperidine-3,7′-pyrrolo[3,2-c]pyridin]-2′-yl)pyridin-2-yl)benzamide] | < 0.1 | > 1 | E (mass modification of ≥70%) |
| C=CC(=O)Nc1cc(-c2cc(-c3cc4c([nH]3)C3(CCCNC3)CNC4=O)ccn2)ccc1F (stereo not drawn) [Compound I-8] | < 0.1 | > 1 | E (mass modification of ≥70%) |
| C=CS(=O)(=O)N1CCC[C@@H](NC(=O)c2ccc3sc4c(c3c2)NC[C@@H](C)NC4=O)C1 [III-44] | < 0.1 | 0.101 to 0.5 | E (mass modification of ≥70%) |
| C=CC(=O)N1CC(C)(C)Oc2ccc(NC(=O)c3ccc4cc5n(c4c3)C3(CCC3)CNC5=O)cc21 [Compound V-51, N-(4-acryloyl-2,2-dimethyl-3,4-dihydro-2H-benzo[b][1,4]oxazin-6-yl)-1′-oxo-2′,3′-dihydro-1′H-spiro[cyclobutane-1,4′-pyrazino [1,2-a]indole]-7′-carboxamide] | < 0.1 | 0.101 to 0.5 | E (mass modification of ≥70%) |
| C=CC(=O)Nc1cccc2[nH]c(-c3ccc4cc5n(c4c3)C3(CCC3)CNC5=O)nc12 [Compound V-63, N-(2-(1′-oxo-2′,3′-dihydro-1′H-spiro[cyclobutane-1,4′-pyrazino [1,2-a]indol]-7′-yl)-1H-benzo[d]imidazol-4-yl)acrylamide] | < 0.1 | < 0.1 | E (mass modification of ≥70%) |
| C=CC(=O)Nc1cc(-c2cc(-c3cc4c([nH]3)C3(CCCNC3)CNC4=O)ccn2)cc(C(F)(F)F)c1 (stereo not drawn) [Compound I-9] | < 0.1 | > 1 | E (mass modification of ≥70%) |
| C=CC(=O)Nc1cc(-c2ncc3c(n2)-c2[nH]c4c(c2CC3)C(=O)NCC4)ccc1OCCOC [II-15, N-(2-(2-methoxyethoxy)-5-(7-oxo-6,7,8,9,10,11-hexahydro-5H-pyrido[3′,4′:4,5]pyrrolo[3,2-h]quinazolin-2-yl)phenyl)acrylamide] | < 0.1 | < 0.1 | E (mass modification of ≥70%) |
| C=CC(=O)Nc1cc(-c2ccc3c(ccc4sc5c(c43)NC[C@@H](C)NC5=O)n2)ccc1F [III-13, (R)—N-(2-fluoro-5-(10-methyl-8-oxo-9,10,11,12-tetrahydro-8H-[1,4]diazepino[5′,6′:4,5]thieno[3,2-f]quinolin-3-yl)phenyl)acrylamide] | < 0.1 | < 0.1 | F (mass modification of 31-69%) |
| C=CC(=O)Nc1cc(-c2cc3c(ccc4c5c([nH]c43)CCC5=O)cn2)ccc1N1CCN(C(C)=O)CC1 [II-e-23, N-(2-(4-acetylpiperazin-1-yl)-5-(7-oxo-7,8,9,10-tetrahydrocyclopenta[4,5]pyrrolo[2,3-f]isoquinolin-2-yl)phenyl)acrylamide] | < 0.1 | 0.501 to 0.999 | E (mass modification of ≥70%) |
| C=CC(=O)Nc1cc(-c2cc3c(cn2)CCc2c-3[nH]c3c2C(=O)NCC3)ccc1N1CCN(C)CC1 [II-1, N-(2-(4-methylpiperazin-1-yl)-5-(7-oxo-6,7,8,9,10,11-hexahydro-5H-pyrido[3′,4′:4,5]pyrrolo[2,3-f]isoquinolin-2-yl)phenyl)acrylamide] | < 0.1 | < 0.1 | E (mass modification of ≥70%) |
| C=CC(=O)N1CCc2ccc(NC(=O)c3ccc4cc5n(c4c3)C3(CCC3)CNC5=O)cc21 [Compound V-45, N-(1-acryloylindolin-6-yl)-1′-oxo-2′,3′-dihydro-1′H-spiro[cyclobutane-1,4′-pyrazino[1,2-a]indole]-7′-carboxamide] | < 0.1 | 0.101 to 0.5 | E (mass modification of ≥70%) |
| C=CC(=O)N1CCC[C@@H](NC(=O)c2ccc3sc4c(c3c2)NC[C@@H](C)NC4=O)C1 [III-42] | < 0.1 | > 1 | E (mass modification of ≥70%) |
